Results reported in patent US10271552B2, “Heterocyclic compounds as pesticides” (Bayer CropScience Aktiengesellschaft, priority 2015, dated 2019).

Experiments:
Format in all cases: in vivo
[1] = tested on: Boophilus microplus; test: Boophilus microplus injection test; details: 20 μg/animal injected; adult engorged female ticks; after 7 days
Summary of the method: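 Engorged adult female ticks, five per dose, received 1 μl of compound in DMSO injected into the abdomen and were kept in a climate chamber. Fertile egg deposition was checked after 7 days, with eggs of unclear fertility held until hatching at about 42 days. Efficacy 100% = all eggs infertile, 0% = all fertile.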

[2] = tested on: Ctenocephalides felis; test: whole plant or invertebrate; details: po, 48 h
Experimental: Ctenocephalides felis—Oral Test
(§1) Solvent: dimethyl sulfoxide
To produce a suitable preparation of active compound, 10 mg of active compound are dissolved in 0.5 ml solvent, and the concentrate is diluted with cattle blood to the desired concentration.
Approximately 20 adult unfed cat fleas (Ctenocephalides felis) are placed in flea chambers. The blood chamber, sealed with parafilm on the bottom, are filled with cattle blood supplied with compound solution and placed on the gauze covered top of the flea chamber, so that the fleas are able to suck the blood. The blood chamber is heated to 37° C. whereas the flea chamber is kept at room temperature.
After 2 days mortality in % is determined. 100% means all the fleas have been killed; 0% means none of the fleas have been killed.

[3] = tested on: Lucilia cuprina; test: whole plant or invertebrate; details: 48 h
Experimental: as §1
10 mg active compound are dissolved in 0.5 ml Dimethylsulfoxid. Serial dilutions are made to obtain the desired rates.
Approximately 20 1st instar larvae of the Australian sheep blowfly (Lucilia cuprina) are transferred into a test tube containing minced horse meat and compound solution of the desired concentration.
After 2 days mortality in % is determined. 100% means all the larvae have been killed; 0% means none of the larvae have been killed.

[4] = tested on: Diabrotica balteata; test: Diabrotica balteata spray test; details: 160 μg/well; germinated wheat seeds, larvae; after 7 days
Summary of the method: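 Germinated wheat seeds on agar (5 per well) sprayed with compound in acetone/DMF diluted in water with 1000 ppm alkylarylpolyglycol ether, then infested with 10–20 D. balteata larvae. Efficacy (%) scored after 7 days as seedling growth, 100% matching untreated uninfested control and 0% meaning no seedlings grew.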

[5] = tested on: Meloidogyne incognita; test: Meloidogyne incognita test; details: 20 ppm; eggs and larvae, salad seeds in sand; after 14 days
Summary of the method: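 Compound taken up in acetone and diluted with water, then applied to sand with M. incognita eggs and larvae plus salad seeds. Gall formation on roots scored after 14 days: 100% means no galls, 0% equals untreated control.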

[6] = tested on: Myzus persicae; test: Myzus persicae spray test; details: foliar, Chinese cabbage leaf disks, all instars, after 5-6 days
Experimental: Myzus persicae—Spray Test
(§2) Solvent: 78.0 parts by weight acetone • 1.5 parts by weight dimethylformamide
(§3) Emulsifier: alkylarylpolyglycol ether
(§4) To produce a suitable preparation of active compound, 1 part by weight of active compound is mixed with the stated amount of solvents and is diluted with water, containing an emulsifier concentration of 1000 ppm, to the desired concentration. Further test concentrations are prepared by dilution with emulsifier containing water.
Chinese cabbage (Brassica pekinensis) leaf disks infected with all instars of the green peach aphid (Myzus persicae), are sprayed with a preparation of the active ingredient of the desired concentration.
After 5-6 days mortality in % is determined. 100% means all aphids have been killed and 0% means none of the aphids have been killed.

[7] = tested on: Nezara viridula; test: Nezara viridula spray test (solvent 78.0 acetone / 1.5 dimethylformamide); details: 96 h, barley plants, larvae, after 4 days
Experimental: Nezara viridula—Spray Test
(§5) Solvent: 78.0 parts by weight of acetone • • 1.5 parts by weight of dimethylformamide
as §3
as §4, with “solvent,” for “solvents”, “and the concentrate” for “and”
Barley plants (Hordeum vulgare) infested with larvae of the southern green stink bug (Nezara viridula) are sprayed with a test solution containing the desired concentration of the active ingredient.
After 4 days mortality in % is determined. 100% means all the stink bugs have been killed; 0% means none of the stink bugs have been killed.

[8] = tested on: Nilaparvata lugens; test: Nilaparvata lugens spray test (solvent 78.0 acetone / 1.5 dimethylformamide); details: 96 h, rice plants, after 4 days
Experimental: (§6) Nilaparvata lugens—Spray Test
as §5, §3, §4
Rice plants (Oryza sativa) are sprayed with a preparation of the active ingredient of the desired concentration and the plants are infested with the brown planthopper (Nilaparvata lugens).
(§7) After 4 days mortality in % is determined. 100% means all planthoppers have been killed and 0% means none of the planthoppers have been killed.

[9] = tested on: Phaedon cochleariae; test: Phaedon cochleariae spray test; details: foliar, 168 h, Chinese cabbage leaf disks, larvae, after 7 days
Summary of the method: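 Chinese cabbage leaf disks sprayed with compound in acetone/DMF diluted in water containing 1000 ppm alkylarylpolyglycol ether emulsifier. Dried disks infested with mustard beetle larvae. Percent mortality read after 7 days.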

[10] = tested on: Tetranychus urticae; test: Tetranychus urticae spray test OP-resistant; details: foliar, 144 h, French bean leaf disks, all instars, after 6 days
Experimental: Tetranychus urticae—Spray Test OP-Resistant
as §2, §3, §4
French bean (Phaseolus vulgaris) leaf disks infected with all instars of the two spotted spidermite (Tetranychus urticae), are sprayed with a preparation of the active ingredient of the desired concentration.
After 6 days mortality in % is determined. 100% means all spider mites have been killed and 0% means none of the spider mites have been killed.

[11] = tested on: Nezara viridula; test: Nezara viridula spray test (solvent 52.5 acetone / 7 dimethylformamide); details: 96 h, barley plants, larvae, after 4 days
Summary of the method: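 Barley plants carrying Nezara viridula larvae were sprayed with compound diluted in water with 1000 ppm emulsifier, plus ammonium salt and/or penetration enhancer at 1000 ppm where needed. Mortality (%) was scored after 4 days, 100% meaning all bugs killed.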

[12] = tested on: Nilaparvata lugens; test: Nilaparvata lugens spray test (solvent 52.5 acetone / 7 dimethylformamide); details: 96 h, rice plants, larvae, after 4 days
Experimental: as §6
Solvent: 52.5 parts by weight of acetone • 7 parts by weight of dimethylformamide
Emulsifier: alkylaryl polyglycolether
as §4, with “water. Ammonium salt and/or penetration enhancer in a dosage of 1000 ppm are added to the desired concentration if necessary.” for “water.”
Rice plants (Oryza sativa) are treated by being sprayed with the desired concentration of the active compound and are infested with larvae of the brown planthopper (Nilaparvata lugens).
as §7

For `O=C(Nc1nc(-c2ccccc2C(F)(F)F)ns1)c1cccnc1C(F)(F)F` [Compound I-1-20, 2-(trifluoromethyl)-N-{3-[2-(trifluoromethyl)phenyl]-1,2,4-thiadiazol-5-yl}nicotinamide], the “efficacy (infertile eggs)” value [1] was 100%, the mortality at 100 ppm [2] was 100% and the mortality at 100 ppm [3] was 100%. For the same compound, the “efficacy (seedling growth)” value [4] was 100%, the “nematicidal activity (gall formation)” value [5] was 100% and the mortality at 500 g/ha [6] was no less than 70%. For the same compound, the mortality at 500 g/ha [7] was no less than 90%, the mortality at 500 g/ha [8] was no less than 70% and the mortality at 500 g/ha [9] was no less than 80%. It also gave a mortality at 500 g/ha [10] of no less than 70%, a mortality at 500 g/ha [11] of no less than 90% and a mortality at 500 g/ha [12] of no less than 80%.
